Target: Potassium voltage-gated channel subfamily KQT member 2 (Rattus norvegicus) (UniProt O88943)
Test: PubChem AID 588635
Conditions: KCNQ2-CHO cells, manual whole-cell patch clamp current; at 0.1 µM; stronger effect = higher value

Chain of Potassium voltage-gated channel subfamily KQT member 2 (Rattus norvegicus) (O88943 whole entry, looked up): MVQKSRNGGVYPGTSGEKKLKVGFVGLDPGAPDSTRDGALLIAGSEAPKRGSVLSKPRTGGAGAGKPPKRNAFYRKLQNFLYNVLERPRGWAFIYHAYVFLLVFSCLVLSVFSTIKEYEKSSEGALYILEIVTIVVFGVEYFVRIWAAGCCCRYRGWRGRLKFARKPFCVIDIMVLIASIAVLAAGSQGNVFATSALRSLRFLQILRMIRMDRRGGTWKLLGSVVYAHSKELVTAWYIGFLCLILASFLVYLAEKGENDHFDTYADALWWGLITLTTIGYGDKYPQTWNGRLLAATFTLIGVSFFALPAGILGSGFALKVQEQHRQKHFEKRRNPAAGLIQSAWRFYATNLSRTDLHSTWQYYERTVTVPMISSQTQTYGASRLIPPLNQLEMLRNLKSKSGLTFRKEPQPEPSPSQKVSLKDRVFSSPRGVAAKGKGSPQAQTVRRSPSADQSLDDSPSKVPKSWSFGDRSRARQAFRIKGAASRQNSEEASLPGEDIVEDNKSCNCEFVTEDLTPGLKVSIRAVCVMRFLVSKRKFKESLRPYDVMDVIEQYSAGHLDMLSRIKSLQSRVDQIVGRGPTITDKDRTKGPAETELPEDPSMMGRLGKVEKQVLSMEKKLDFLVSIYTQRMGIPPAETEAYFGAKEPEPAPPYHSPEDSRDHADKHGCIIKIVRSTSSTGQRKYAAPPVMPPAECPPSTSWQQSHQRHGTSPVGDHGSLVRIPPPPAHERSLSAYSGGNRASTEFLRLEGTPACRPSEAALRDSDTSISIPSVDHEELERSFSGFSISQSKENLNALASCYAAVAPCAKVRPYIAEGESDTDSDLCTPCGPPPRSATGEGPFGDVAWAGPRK

CC[C@H](C(=O)Nc1ccccc1N1CCCC1)c1ccccc1
inhibition: 83.4%

— PubChem BioAssay AID588635 (Johns Hopkins Ion Channel Center, 2011)
